Measurements published in US20210317092A1 (BAYER PHARMA AKTIENGESELLSCHAFT, priority 2016, published 2021).

Each compound was assayed against T1, human Bradykinin B1 receptor (Homo sapiens, UniProt P46663) (assay: Calcium flux Assay (FLIPR) with recombinant CHO-K1 cells expressing human Bradykinin B1 receptor, in presence (hB1 IC50) or absence (hB1 free IC50) of 0.1% BSA). Conditions: in absence of 0.1% BSA, read-out: hB1 free IC50.
T1 construct: host or cells: CHO-K1
T1 sequence (P46663 1-353): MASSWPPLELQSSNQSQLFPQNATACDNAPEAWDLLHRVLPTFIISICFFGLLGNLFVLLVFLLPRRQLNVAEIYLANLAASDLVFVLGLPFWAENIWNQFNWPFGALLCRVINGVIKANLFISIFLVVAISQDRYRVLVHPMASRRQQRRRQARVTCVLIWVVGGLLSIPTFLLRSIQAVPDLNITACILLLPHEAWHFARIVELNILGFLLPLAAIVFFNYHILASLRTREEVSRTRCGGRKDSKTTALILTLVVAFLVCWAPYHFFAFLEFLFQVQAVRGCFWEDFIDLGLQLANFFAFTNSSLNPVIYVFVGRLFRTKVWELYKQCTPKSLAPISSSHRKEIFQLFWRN
Assay type: cell-based

IC50	Compound
3.62 nM	CC(F)(F)c1ccc(-c2ccc(NC(=O)C3(c4ccc(OC(F)(F)F)cc4)CC3)cc2-c2nnn[nH]2)cn1 [Example 278, N-{4-[6-(1,1-difluroethyl)py-ridin-3-yl]-3-(1H-tetrazol-5-yl)phenyl}-1-[4-(trifluoromethoxy)phenyl]cyclo-propanecarboxa-mide]
11.3 nM	Cc1ccc(C2(C(=O)Nc3ccc(-c4ccc(C(C)(F)F)nc4)c(-c4nnn[nH]4)c3)CC2)c(F)c1 [Example 280, N-{4-[6-(1,1-difluoroethyl)py-ridin-3-yl]-3-(1H-tetrazol-5-yl)phenyl}-1-(2-fluoro-4-methylphenyl)cy-clopropanecar-boxamide]
3.49 nM	CC(F)(F)c1ccc(-c2ccc(NC(=O)C3(c4ccc(OC(F)(F)F)cc4F)CC3)cc2-c2nnn[nH]2)cn1 [Example 282, N-{4-[6-(1,1-difluoroethyl)py-ridin-3-yl]-3-(1H-tetrazol-5-yl)phenyl}-1-[2-fluoro-4-(trifluoromethoxy)phenyl]cyclo-propanecarboxa-mide]
8.19 nM	CCC(F)(F)c1ccc(-c2ccc(NC(=O)C3(c4cccc(Cl)c4)CC3)cc2-c2nnn[nH]2)cn1 [Example 283, 1-(3-chlorophenyl)-N-{4-[6-(1,1-difluoropropyl)py-ridin-3-yl]-3-(1H-tetrazol-5-yl)phenyl}cyclopro-panecarboxa-mide]
15.3 nM	CCC(F)(F)c1ccc(-c2ccc(NC(=O)C3(c4ccc(F)c(F)c4)CC3)cc2-c2nnn[nH]2)cn1 [Example 284, 1-(3,4-difluorophenyl)-N-{4-[6-(1,1-difluoropropyl)py-ridin-3-yl]-3-(1H-tetrazol-5-yl)phenyl}cyclopro-panecarboxa-mide]
15.8 nM	CCC(F)(F)c1ccc(-c2ccc(NC(=O)C3(c4ccc(C)cc4F)CC3)cc2-c2nnn[nH]2)cn1 [Example 285, N-{4-[6-(1,1-difluoropropyl)py-ridin-3-yl]-3-(1H-tetrazol-5-yl)phenyl}-1-(2-fluoro-4-methylphenyl)cy-clopropanecar-boxamide]
4.34 nM	CCC(F)(F)c1ccc(-c2ccc(NC(=O)C3(c4ccc(C(F)(F)F)cc4F)CC3)cc2-c2nnn[nH]2)cn1 [Example 286, N-{4-[6-(1,1-difluoropropyl)py-ridin-3-yl]-3-(1H-tetrazol-5-yl)phenyl}-1-[2-fluoro-4-(trifluoromethyl)phenyl]cyclopro-panecarboxamide]
3.93 nM	CCC(F)(F)c1ccc(-c2ccc(NC(=O)C3(c4ccc(OC(F)(F)F)cc4F)CC3)cc2-c2nnn[nH]2)cn1 [Example 287, N-{4-[6-(1,1-difluoropropyl)py-ridin-3-yl]-3-(1H-tetrazol-5-yl)phenyl}-1-[2-fluoro-4-(trifluoromethoxy)phenyl]cyclo-propanecarboxa-mide]
6.81 nM	O=C(Nc1ccc(-c2ccc(C(F)(F)F)nc2)c(-c2nnn[nH]2)c1)C1(c2ccc(C(F)(F)F)c(F)c2)CC1 [Example 288, 1-[3-fluoro-4-(trifluoromethyl)phenyl]-N-{3-(1H-tetrazol-5-yl)-4-[6-(trifluoromethyl)pyridin-3-yl]phenyl}cyclopro-panecarboxa-mide]
50.2 nM	O=C(Nc1ccc(-c2ccc(C(F)(F)F)nc2)c(-c2nnn[nH]2)c1)C1(c2cc(F)cc(C(F)(F)F)c2)CC1 [Example 289, 1-[3-fluoro-5-(trifluoromethyl)phenyl]-N-{3-(1H-tetrazol-5-yl)-4-[6-(trifluoromethyl)pyridin-3-yl]phenyl}cyclopro-panecarboxa-mide]
135 nM	Cc1cc(Cl)ccc1C1(C(=O)Nc2ccc(-c3ccc(C(F)(F)F)nc3)c(-c3nnn[nH]3)c2)CC1 [Example 290, 1-(4-chloro-2-methylphenyl)-N-{3-(1H-tetrazol-5-yl)-4-[6-(trifluoromethyl)pyridin-3-yl]phenyl}cyclopro-panecarboxa-mide]
7.85 nM	O=C(Nc1ccc(-c2ccc(C(F)(F)F)nc2)c(-c2nnn[nH]2)c1)C1(c2ccc(C(F)(F)F)cc2Cl)CC1 [Example 292, 1-[2-chloro-4-(trifluoromethyl)phenyl]-N-{3-(1H-tetrazol-5-yl)-4-[6-(trifluoromethyl)pyridin-3-yl]phenyl}cyclopro-panecarboxa-mide]
1730 nM	O=C(Nc1cnc(-c2cnn(C(F)F)c2)c(-c2nnn[nH]2)c1)C1(c2ccc(C(F)(F)F)cc2F)CC1 [Example 296, N-{6-[1-(difluoromethyl)-1H-pyrazol-4-yl]-5-(1H-tetrazol-5-yl)pyridin-3-yl}-1-[2-fluoro-4-(trifluoromethyl)phenyl]cyclopro-panecarboxamide]
350 nM	O=C(Nc1ccc(-c2ccc(C(F)(F)F)nc2)c(-c2nnn[nH]2)c1F)C1(c2cccc(Cl)c2)CC1 [Example 297, 1-(3-chlorophenyl)-N-{2-fluoro-3-(1H-tetrazol-5-yl)-4-[6-(trifluoromethyl)pyridin-3-yl]phenyl}cyclopro-panecarboxa-mide]
368 nM	O=C(Nc1ccc(-c2ccc(C(F)(F)F)nc2)c(-c2nnn[nH]2)c1F)C1(c2ccc(F)c(F)c2)CC1 [Example 298, 1-(3,4-difluorophenyl)-N-{2-fluoro-3-(1H-tetrazol-5-yl)-4-[6-(trifluoromethyl)pyridin-3-yl]phenyl}cyclopro-panecarboxa-mide]
241 nM	Cc1ccc(C2(C(=O)Nc3ccc(-c4ccc(C(F)(F)F)nc4)c(-c4nnn[nH]4)c3F)CC2)c(F)c1 [Example 299, 1-(2-fluoro-4-methylphenyl)-N-{2-fluoro-3-(1H-tetrazol-5-yl)-4-[6-(trifluoromethyl)pyridin-3-yl]phenyl}cyclopro-panecarboxa-mide]
58.1 nM	O=C(Nc1ccc(-c2ccc(C(F)(F)F)nc2)c(-c2nnn[nH]2)c1F)C1(c2ccc(C(F)(F)F)cc2F)CC1 [Example 300]
36.1 nM	O=C(Nc1ccc(-c2ccc(C(F)(F)F)nc2)c(-c2nnn[nH]2)c1F)C1(c2ccc(OC(F)(F)F)cc2F)CC1 [Example 301, N-{2-fluoro-3-(1H-tetrazol-5-yl)-4-[6-(trifluoromethyl)pyridin-3-yl]phenyl}-1-[2-fluoro-4-(trifluoromethoxy)phenyl]cyclo-propanecarboxa-mide]
44 nM	O=C(Nc1cc(Cl)c(-c2ccc(C(F)(F)F)nc2)c(-c2nnn[nH]2)c1)C1(c2cccc(Cl)c2)CC1 [Example 302, 1-(3-chlorophenyl)-N-{3-chloro-5-(1H-tetrazol-5-yl)-4-[6-(trifluoromethyl)pyridin-3-yl]phenyl}cyclopro-panecarboxa-mide]
52 nM	O=C(Nc1cc(Cl)c(-c2ccc(C(F)(F)F)nc2)c(-c2nnn[nH]2)c1)C1(c2ccc(F)c(F)c2)CC1 [Example 303, N-{3-chloro-5-(1H-tetrazol-5-yl)-4-[6-(trifluoromethyl)pyridin-3-yl]phenyl}-1-(3,4-difluorophenyl)cy-clopropanecar-boxamide]
18.5 nM	O=C(Nc1cc(Cl)c(-c2ccc(C(F)(F)F)nc2)c(-c2nnn[nH]2)c1)C1(c2ccc(C(F)(F)F)cc2F)CC1 [Example 304, N-{3-chloro-5-(1H-tetrazol-5-yl)-4-[6-(trifluoromethyl)pyridin-3-yl]phenyl}-1-[2-fluoro-4-(trifluoromethyl)phenyl]cyclopro-panecarboxamide]
45.7 nM	CCOc1ccc(-c2ccc(NC(=O)C3(c4ccccc4)CC3)cc2-c2nnn[nH]2)cn1 [Example 306, N-[4-(6-ethoxypyridin-3-yl)-3-(1H-tetrazol-5-yl)phenyl]-1-phenylcyclopropane-carboxamide]
587 nM	CCOc1ccc(-c2ccc(NC(=O)C(C)(C)C)cc2-c2nnn[nH]2)cn1 [Example 309, N-[4-(6-ethoxypyridin-3-yl)-3-(1H-tetrazol-5-yl)phenyl]-2,2-dimethylpropan-amide]

Same assay, conditions: in presence of 0.1% BSA, read-out: hB1 IC50

IC50	Compound
133 nM	CCOc1ccc(-c2ccc(NC(=O)C3(c4ccccc4)CC3)cc2-c2nnn[nH]2)cn1 [Example 306, N-[4-(6-ethoxypyridin-3-yl)-3-(1H-tetrazol-5-yl)phenyl]-1-phenylcyclopropane-carboxamide]
191 nM	O=C(Nc1ccc(-c2ccc(OCC(F)(F)F)nc2)c(-c2nnn[nH]2)c1)C1(c2cccc(Cl)c2)CC1 [Example 313, 1-(3-chlorophenyl)-N-{3-(1H-tetrazol-5-yl)-4-[6-(2,2,2-trifluoroethoxy)-pyridin-3-yl]phenyl}cyclopropanecarboxamide]
340 nM	COc1ccc(-c2ccc(NC(=O)C3(c4cccc(Cl)c4)CC3)cc2-c2nnn[nH]2)cc1 [Example 314, 1-(3-chlorophenyl)-N-[4′-methoxy-2-(1H-tetrazol-5-yl)biphenyl-4-yl]cyclopropane-carboxamide]
235 nM	COc1ccc(-c2ccc(NC(=O)C3(c4cccc(Cl)c4)CC3)cc2-c2nnn[nH]2)cc1F [Example 315, 1-(3-chlorophenyl)-N-[3′-fluoro-4′-methoxy-2-(1H-tetrazol-5-yl)biphenyl-4-yl]cyclopropane-carboxamide]
328 nM	COc1ccc(-c2ccc(NC(=O)C3(c4cccc(Cl)c4)CC3)cc2-c2nnn[nH]2)cn1 [Example 316, 1-(3-chlorophenyl)-N-[4-(6-methoxypyridin-3-yl)-3-(1H-tetrazol-5-yl)phenyl]cyclopro-panecarboxa-mide]
52.9 nM	O=C(Nc1ccc(-c2ccc(OC(F)(F)F)cc2)c(-c2nnn[nH]2)c1)C1(c2cccc(Cl)c2)CC1 [Example 317, 1-(3-chlorophenyl)-N-[2-(1H-tetrazol-5-yl)-4′-(trifluoromethoxy)biphenyl-4-yl]cyclopropane-carboxamide]
59.1 nM	CCOc1cncc(-c2ccc(NC(=O)C3(c4cccc(Cl)c4)CC3)cc2-c2nnn[nH]2)c1 [Example 318, 1-(3-chlorophenyl)-N-[4-(5-ethoxypyridin-3-yl)-3-(1H-tetrazol-5-yl)phenyl]cyclopro-panecarboxa-mide]
